According to ChEMBL document CHEMBL3407340, “Synthesis, radiolabeling and evaluation of novel 4-oxo-quinoline derivatives as PET tracers for imaging cannabinoid type 2 receptor” (Eur J Med Chem, 2015):

Target: Cannabinoid receptor 1 (Homo sapiens, UniProt P21554)
Assay: Displacement of [3H]-CP-55940 from human CB1 receptor transfected in CHOK1 cells after 90 mins by liquid scintillation counting analysis
Assay type: cell-based, CHO-K1

Sequence of Cannabinoid receptor 1 (P21554 whole entry): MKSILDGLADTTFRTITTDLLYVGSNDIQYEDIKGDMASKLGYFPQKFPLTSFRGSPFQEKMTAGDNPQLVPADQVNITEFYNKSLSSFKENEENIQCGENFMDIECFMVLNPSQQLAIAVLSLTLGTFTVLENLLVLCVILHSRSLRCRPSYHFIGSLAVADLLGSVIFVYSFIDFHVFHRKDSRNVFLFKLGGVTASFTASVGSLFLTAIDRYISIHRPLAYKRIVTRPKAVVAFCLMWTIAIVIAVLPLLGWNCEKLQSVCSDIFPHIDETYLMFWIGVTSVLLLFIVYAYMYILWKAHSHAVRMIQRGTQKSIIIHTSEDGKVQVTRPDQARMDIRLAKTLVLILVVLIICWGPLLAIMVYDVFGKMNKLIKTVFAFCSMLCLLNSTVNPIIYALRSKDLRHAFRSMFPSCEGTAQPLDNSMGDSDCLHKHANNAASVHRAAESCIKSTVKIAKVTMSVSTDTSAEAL

Compound | Ki
CCCCn1cc(C(=O)NC(C)(C)C)c(=O)c2cccc(OC)c21 | > 10 µM
CCOCCn1cc(C(=O)NC23CC4CC(CC(O)(C4)C2)C3)c(=O)c2cccc(OC)c21 | > 10 µM
CCCCn1cc(C(=O)NCC2CC2)c(=O)c2cccc(OC)c21 | > 10 µM
COc1cccc2c(=O)c(C(=O)NC(C)(C)C)cn(CCCF)c12 | > 10 µM
CCCCCn1cc(C(=O)NC23CC4CC(CC(C4)C2)C3)c(=O)c2cccc(OC)c21 | > 10 µM
